Measurements published in patent US10723716B2, “Alpha-helix mimetics as modulators of Abeta self-assembly” (New York University, priority 2016, dated 2020).
“Also recorded” adds a separate entry of the source.

Columns and labels:
Aβ42 [1] = target: T1, Aβ42 (Homo sapiens, UniProt P05067); assay: ELISA with Aβ oligomer-specific antibody (OMAB); assay type: biochemical; conditions: for Aβ42 oligomers by ELISA on delayed addition: 2 μM Aβ42, compound added at 3 h and 6 h, equimolar; for ELISA absorbance (soluble Aβ42 oligomers, OMAB): Aβ42 incubated with compound, equimolar ratio, all time points
T1 construct: Cleavage of APP results in several Aβ isoforms; The predominant species are Aβ42 and Aβ40; purchased Anaspec (Fremont, Calif., USA)
T1 sequence (P05067 672-713 limits assumed): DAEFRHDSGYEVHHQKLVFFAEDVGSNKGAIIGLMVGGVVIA
Method: The ELISA was performed according to a previously published method (see Lindhagen-Persson, M.; Brännström, K.; Vestling, M.; Steinitz, M.; Olofsson, A. PLoS ONE 2010, 5, e13928). A Nunc-Immuno MaxiSorp plate (Sigma Aldrich, St. Louis, Mo., USA) was incubated with 2 μg mL^−1 Aβ oligomer-specific antibody (OMAB, Agrisera, Sweden) in PBS buffer overnight at 4° C. (200 μl/well). Wells were blocked with 5% fat-free milk in PBS buffer with 0.1% Tween 20 (PBST) for 1 h at 4° C. and washed with PBST buffer (×3). Wells were then treated with Aβ42 samples overnight at 4° C. […] Samples were diluted by 1:30 in PBS buffer before adding to a 96-well plate. After adding Aβ42 samples, the wells were washed (×3) with PBST buffer followed by the addition of 6E10 antibody (1/1000 dilution in 5% nonfat free milk in PBST buffer) for 1 h at r.t. Wells were washed (×5) with PBST buffer and treated with an anti-mouse HRP-conjugated IgG (1/10,000 dilution in 5% nonfat free milk in PBST buffer). Wells were washed (×5) with PBST buffer and treated with TMB Peroxidase EIA Substrate Kit (Biorad, Hercules, Calif., USA). The plates were developed until the color of the solution turned blue. The reaction was stopped by adding 100 μL of 1N H2SO4 to each well. The color of the solution changed to yellow from blue. The absorbance was recorded at 450 nm on a FlexStation 3 Multi-Mode Microplate reader from Molecular Devices (Sunnyvale, Calif., USA). Each sample was repeated in triplicate.

Neuro-2a cells = assay: Effect of compound alone on Neuro-2a cell viability; assay type: cell-based, mouse; conditions: for toxicity of compound alone to Neuro-2a cells: matched cytotoxic experimental conditions, no Aβ42
Method: To investigate the toxic effect of the peptide alone on cell viability, solution (B) without the oligopyridylamide compound was mixed with solution (A), while the effect of the oligopyridylamide compound alone was determined by adding solution (A) without peptide to solution (B). The effect of oligopyridylamides on seed-catalyzed Aβ42 aggregation was probed by preparing an additional solution (C) containing 0.5 μM seeds. The volume contributed by solution (C) was taken into account in preparing solution (B). Solution (C) was mixed with solution (B), and the resulting mixture was then added to solution (A) shortly before addition to the wells. To study the effect of oligopyridylamides on the oligomeric states of Aβ42, solution (A) was mixed with solution (B) without inhibitor and incubated at room temperature for 1, 2 or 3 h. Subsequently, 50 μM oligopyridylamides was added to the mixture, which was then immediately added to the cells. […] The MTS reagent was incubated for 2.5 h at 37° C., and absorbance of the soluble formazan product (λ=490 nm) of MTS reduction was measured on a Synergy H1MF Multi-Mode microplate-reader (BioTek, Winooski, Vt., USA), with a reference wavelength of 650 nm to subtract the background. Wells treated with a solution containing serum-free DMEM, 200 μM NaOH, 0.1×PBS and 0.5% (v/v) DMSO served as control. MTS reduction was determined from the ratio of the absorbance of the treated wells to the control wells. Each data point represents an average of four independent quadruplet-well trials.

Aβ42 [2] = target: T1, Aβ42; assay: Seed-catalyzed kinetic assay, Aβ42; assay type: biochemical; conditions: equimolar ratio, preformed fibers (seeds)
Method: Seeds of Aβ40/Aβ42 were prepared by incubating 200 μM of Aβ40/Aβ42 in phosphate buffer at room temperature. The samples were aged for 48 h and the formation of fibers was confirmed by TEM and ThT before storage at −20° C. until use. For the aggregation of Aβ40, 10% (based on the monomeric Aβ40, v/v) seeds were added along with ThT in phosphate buffer to the 96-well plate. The aggregation was initiated by the addition of monomeric Aβ40 followed by gentle mixing. The process was similar in the case of Aβ42 except that the seed concentration was 5% (based on the monomeric Aβ42, v/v).
The seeds were generated by aging 200 μM Aβ peptides for 48 h in phosphate buffer with occasional vortexing. The concentration of seeds was calculated based on the monomeric concentration of Aβ.

[3] = system: IAPP mediated toxicity in rat INS-1 cells; assay: IAPP mediated toxicity in INS-1 cells; assay type: cell-based; conditions: equimolar ratio

Compound	Aβ42 oligomers by ELISA on delayed addition (Aβ42 [1])	ELISA absorbance (soluble Aβ42 oligomers, OMAB) (Aβ42 [1])	toxicity of compound alone to Neuro-2a cells (Neuro-2a cells)	effect on seed-catalyzed Aβ42 fibrillation (Aβ42 [2])	cell viability ([3]; IAPP, INS-1 cells, IAPP alone 65±6%) [%]	cell viability, compound alone (Neuro-2a cells; 4 μM ADH-41 + 1 μM ADH-41F, N2a cells, 24 h) [%]	effect on IAPP mediated toxicity ([3]; rat INS-1 cells)
COC(=O)c1ccc(NC(=O)c2ccc(NC(=O)c3ccc(NC(=O)c4ccc([N+](=O)[O-])c(OCC(C)C)n4)c(OCc4ccccc4)n3)c(OCC(=O)O)n2)c(OCC(=O)O)n1 [ADH-31]	no evidence of oligomers	significantly lower	not toxic	completely suppressed	98±4		
COC(=O)c1ccc(NC(=O)c2ccc(NC(=O)c3ccc([N+](=O)[O-])c(OCc4ccccc4)n3)c(OCCCN)n2)c(OCCCN)n1 [ADH-41]	no evidence of oligomers	significantly lower	not toxic	completely arrested; also recorded: completely inhibits; also recorded: completely suppressed		98	did not have any effect; also recorded: no effect
